Reference: US20180296663A1 (priority 2015, published 2018)

Tests used:
CD4+ T cells = system: CD4+ T cells; design: species or system BALB/c mice; conditions: mouse, in vivo
CD8+ T cells = system: CD8+ T cells; design: species or system Balb/c mice; conditions: mouse, in vivo

Compound	frequencies of HA-specific IFN-γ+/TNF+ CD4+ T cells (CD4+ T cells)	frequencies of HA-specific IFN-γ+/TNF+CD4+ T cells (CD4+ T cells)	number of IFNγ/TNF double-positive multifunctional CD8+ T cells in the spleen (CD8+ T cells)
Nc1nc2c(ncn2[C@@H]2O[C@@H]3COP(=O)(O)O[C@H]4[C@@H](O)[C@H](n5cnc6c(=O)[nH]c(N)nc65)O[C@@H]4COP(=O)(O)O[C@H]3[C@H]2O)c(=O)[nH]1 [c-di-GMP, cyclic diguanylate monophosphate]	higher frequencies	higher frequencies	–
HMGB1: high mobility group protein (HMGB) compound, which may act as an endogenous immunomodulator	–	–	significant increase
